According to patent US9902702B2, “Spirocycloheptanes as inhibitors of rock” (BRISTOL-MYERS SQUIBB COMPANY, priority 2014, dated 2018):

Target: ROCK2 (Homo sapiens, UniProt O75116)
Experiment: ROCK assay: phosphorylation of FITC peptide substrate, LABCHIP 3000 mobility shift
Type: biochemical
Settings: 5 μM ATP, 1.5 μM peptide substrate; read-out: ROCK2 Activity (ROCK IC50 range)
Method in brief: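 Rho kinase variant phosphorylates 1.5 μM FITC-AHA-AKRRRLSSLRA-OH with 5 μM ATP in 20 mM HEPES pH 7.5, 20 mM MgCl2, 0.015% Brij-35, 4 mM DTT, DMSO <2%. EDTA stops the reaction, and phospho and non-phospho peptides are resolved by LabChip 3000 mobility shift. IC50 from dose-response curve fit.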

Chain of ROCK2 (O75116 whole entry, species assumed): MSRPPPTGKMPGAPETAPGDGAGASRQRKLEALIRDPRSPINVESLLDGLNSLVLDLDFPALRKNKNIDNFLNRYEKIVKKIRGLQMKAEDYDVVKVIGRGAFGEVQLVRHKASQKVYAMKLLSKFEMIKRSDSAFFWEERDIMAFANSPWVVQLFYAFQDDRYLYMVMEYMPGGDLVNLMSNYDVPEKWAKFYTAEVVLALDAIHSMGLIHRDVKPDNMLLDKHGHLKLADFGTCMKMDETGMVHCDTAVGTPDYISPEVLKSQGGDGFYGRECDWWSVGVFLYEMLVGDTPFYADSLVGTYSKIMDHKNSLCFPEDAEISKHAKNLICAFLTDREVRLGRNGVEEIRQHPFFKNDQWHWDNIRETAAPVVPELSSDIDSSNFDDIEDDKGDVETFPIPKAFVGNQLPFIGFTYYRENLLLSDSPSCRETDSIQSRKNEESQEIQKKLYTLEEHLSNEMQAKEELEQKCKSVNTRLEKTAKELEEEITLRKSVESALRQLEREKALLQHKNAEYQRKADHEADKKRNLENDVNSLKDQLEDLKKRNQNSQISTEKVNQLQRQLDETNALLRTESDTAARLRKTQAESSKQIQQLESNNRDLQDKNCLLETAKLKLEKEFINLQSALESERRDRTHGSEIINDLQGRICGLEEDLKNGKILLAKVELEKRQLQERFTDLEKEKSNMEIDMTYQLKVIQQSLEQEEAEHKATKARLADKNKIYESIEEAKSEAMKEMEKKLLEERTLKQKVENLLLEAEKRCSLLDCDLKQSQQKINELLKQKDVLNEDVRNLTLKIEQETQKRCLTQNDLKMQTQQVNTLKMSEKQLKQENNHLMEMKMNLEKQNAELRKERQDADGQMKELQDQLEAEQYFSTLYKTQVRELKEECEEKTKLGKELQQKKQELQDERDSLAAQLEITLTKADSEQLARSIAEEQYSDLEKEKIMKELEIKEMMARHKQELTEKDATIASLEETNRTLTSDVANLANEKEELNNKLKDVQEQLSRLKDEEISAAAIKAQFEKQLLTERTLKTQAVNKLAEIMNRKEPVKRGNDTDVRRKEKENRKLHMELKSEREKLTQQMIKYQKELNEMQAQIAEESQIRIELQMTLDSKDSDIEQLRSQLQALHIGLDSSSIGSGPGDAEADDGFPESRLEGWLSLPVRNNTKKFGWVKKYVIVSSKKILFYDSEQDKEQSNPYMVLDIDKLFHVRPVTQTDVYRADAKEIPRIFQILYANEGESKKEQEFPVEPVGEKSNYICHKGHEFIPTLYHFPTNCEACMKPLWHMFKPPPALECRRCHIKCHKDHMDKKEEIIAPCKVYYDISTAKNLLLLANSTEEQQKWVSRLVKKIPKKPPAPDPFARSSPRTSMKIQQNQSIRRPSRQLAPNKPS

How did the IC50 turn out when `O=C(NC1CC2(C1)CC(c1n[nH]c(=O)c3ccccc13)C2)c1cnn2cc(CCCN3CCCC3)ccc12` [Example 192, N-((aR)-6-(4-oxo-3,4-dihydrophthalazin-1-yl)spiro[3.3]heptan-2-yl)-6-(3-(pyrrolidin-1-yl)propyl)pyrazolo[1,5-a]pyridine-3-carboxamide] was run?
The IC50 was 2.01 to 5 nM.

`CN(C)CCCc1ccc2c(C(=O)NC3CC4(C3)CC(c3n[nH]c(=O)c5ccccc35)C4)cnn2c1` [Example 193, 6-(3-(dimethylamino)propyl)-N-((aR)-6-(4-oxo-3,4-dihydrophthalazin-1-yl)spiro[3.3]heptan-2-yl)pyrazolo[1,5-a]pyridine-3-carboxamide] was tested. Which IC50 did it give?
Its IC50 is 5.1 to 15 nM.

Which IC50 does the source give for `O=C(NC1CC2(C1)CC(c1n[nH]c(=O)c3ccccc13)C2)c1cnn2cc(CCCNC3CC3)ccc12` (centres unmarked) [Example 194] here?
Its IC50 is 5.1 to 15 nM.

`O=C(NC1CC2(C1)CC(c1n[nH]c(=O)c3ccccc13)C2)c1cnn2cc(CCCO)ccc12` [Example 195, 6-(3-hydroxypropyl)-N-((aR)-6-(4-oxo-3,4-dihydrophthalazin-1-yl)spiro[3.3]heptan-2-yl)pyrazolo[1,5-a]pyridine-3-carboxamide] was tested. Which IC50 did it give?
Its IC50 is 5.1 to 15 nM.

With `O=C(NC1CC2(C1)CC(c1n[nH]c(=O)c3ccccc13)C2)c1cnn2cc(CCCN3CCC(F)(F)CC3)ccc12` [Example 196, 6-(3-(4,4-difluoropiperidin-1-yl)propyl)-N-((aR)-6-(4-oxo-3,4-dihydrophthalazin-1-yl)spiro[3.3]heptan-2-yl)pyrazolo[1,5-a]pyridine-3-carboxamide] as the compound, how does the IC50 read?
The IC50 was 2.01 to 5 nM.

How did the IC50 turn out when `O=C(NC1CC2(C1)CC(c1n[nH]c(=O)c3ccccc13)C2)c1cnn2cc(CCCN3CCC(F)(F)C3)ccc12` [Example 197, 6-(3-(3,3-difluoropyrrolidin-1-yl)propyl)-N-((aR)-6-(4-oxo-3,4-dihydrophthalazin-1-yl)spiro[3.3]heptan-2-yl)pyrazolo[1,5-a]pyridine-3-carboxamide] was run?
The IC50 was 0.2 to 2 nM.

How did the IC50 turn out when `CC(C)(O)CCc1ccc2c(C(=O)N[C@H]3CC4(C3)C[C@H](c3n[nH]c(=O)c5ccccc53)C4)cnn2c1` (stereo partly drawn) [Example 198, 6-(3-hydroxy-3-methylbutyl)-N-((aR)-6-(4-oxo-3,4-dihydrophthalazin-1-yl)spiro[3.3]heptan-2-yl)pyrazolo[1,5-a]pyridine-3-carboxamide] was run?
Its IC50 is 0.2 to 2 nM.

For `O=C(N[C@H]1CC2(C1)C[C@H](c1n[nH]c(=O)c3ccccc31)C2)c1cnn2cc(CCC(O)(C(F)(F)F)C(F)(F)F)ccc12` (stereo partly drawn) [Example 199, N-((aR)-6-(4-oxo-3,4-dihydrophthalazin-1-yl)spiro[3.3]heptan-2-yl)-6-(4,4,4-trifluoro-3-hydroxy-3-(trifluoromethyl)butyl)pyrazolo[1,5-a]pyridine-3-carboxamide], which IC50 is on record?
Its IC50 is 2.01 to 5 nM.

How did the IC50 turn out when `O=C(N[C@H]1CC2(C1)C[C@H](c1n[nH]c(=O)c3ccccc31)C2)c1cnn2cc(CN3CCOCC3)ccc12` (stereo partly drawn) [Example 200, 6-(morpholinomethyl)-N-((aR)-6-(4-oxo-3,4-dihydrophthalazin-1-yl)spiro[3.3]heptan-2-yl)pyrazolo[1,5-a]pyridine-3-carboxamide] was run?
The IC50 was 5.1 to 15 nM.

`CN1CCN(Cc2ccc3c(C(=O)NC4CC5(C4)CC(c4n[nH]c(=O)c6ccccc46)C5)cnn3c2)CC1` [Example 201, 6-((4-methylpiperazin-1-yl)methyl)-N-((aR)-6-(4-oxo-3,4-dihydrophthalazin-1-yl)spiro[3.3]heptan-2-yl)pyrazolo[1,5-a]pyridine-3-carboxamide] was tested. Which IC50 did it give?
Its IC50 is 2.01 to 5 nM.

`O=C(NC1CC2(C1)CC(c1n[nH]c(=O)c3ccccc13)C2)c1cnn2cc(CN3CCCCC3)ccc12` [Example 202, N-((aR)-6-(4-oxo-3,4-dihydrophthalazin-1-yl)spiro[3.3]heptan-2-yl)-6-(piperidin-1-ylmethyl)pyrazolo[1,5-a]pyridine-3-carboxamide] was tested. Which IC50 did it give?
The IC50 was 5.1 to 15 nM.

With `CN(C)Cc1ccc2c(C(=O)NC3CC4(C3)CC(c3n[nH]c(=O)c5ccccc35)C4)cnn2c1` [Example 203, 6-((dimethylamino)methyl)-N-((aR)-6-(4-oxo-3,4-dihydrophthalazin-1-yl)spiro[3.3]heptan-2-yl)pyrazolo[1,5-a]pyridine-3-carboxamide] as the compound, how does the IC50 read?
The IC50 was 5.1 to 15 nM.

For `O=C(NC1CC2(C1)CC(c1n[nH]c(=O)c3ccccc13)C2)c1cnn2cc(Cc3ccccc3)ccc12` [Example 204, 6-benzyl-N-((aR)-6-(4-oxo-3,4-dihydrophthalazin-1-yl)spiro[3.3]heptan-2-yl)pyrazolo[1,5-a]pyridine-3-carboxamide], which IC50 is on record?
Its IC50 is 0.2 to 2 nM.

For `O=C(NC1CC2(C1)CC(c1n[nH]c(=O)c3ccccc13)C2)c1cnn2cc(CCC(=O)N3CCOCC3)ccc12` [Example 205, 6-(3-morpholino-3-oxopropyl)-N-((aR)-6-(4-oxo-3,4-dihydrophthalazin-1-yl)spiro[3.3]heptan-2-yl)pyrazolo[1,5-a]pyridine-3-carboxamide], which IC50 is on record?
The IC50 was 2.01 to 5 nM.

How did the IC50 turn out when `O=C(NC1CC2(C1)CC(c1n[nH]c(=O)c3ccccc13)C2)c1cnn2cc(CCC(F)(F)F)ccc12` [Example 206, N-((aR)-6-(4-oxo-3,4-dihydrophthalazin-1-yl)spiro[3.3]heptan-2-yl)-6-(3,3,3-trifluoropropyl)pyrazolo[1,5-a]pyridine-3-carboxamide] was run?
Its IC50 is 0.2 to 2 nM.

How did the IC50 turn out when `N#CCCc1ccc2c(C(=O)NC3CC4(C3)CC(c3n[nH]c(=O)c5ccccc35)C4)cnn2c1` [Example 207, 6-(2-cyanoethyl)-N-((aR)-6-(4-oxo-3,4-dihydrophthalazin-1-yl)spiro[3.3]heptan-2-yl)pyrazolo[1,5-a]pyridine-3-carboxamide] was run?
The IC50 was 2.01 to 5 nM.

`O=C(NC1CC2(C1)CC(c1n[nH]c(=O)c3ccccc13)C2)c1cnn2cc(COCCN3CCOCC3)ccc12` [Example 208, 6-((2-morpholinoethoxy)methyl)-N-((aR)-6-(4-oxo-3,4-dihydrophthalazin-1-yl)spiro[3.3]heptan-2-yl)pyrazolo[1,5-a]pyridine-3-carboxamide] was tested. Which IC50 did it give?
Its IC50 is 2.01 to 5 nM.

How did the IC50 turn out when `COCc1ccc2c(C(=O)NC3CC4(C3)CC(c3n[nH]c(=O)c5ccccc35)C4)cnn2c1` [Example 209, 6-(methoxymethyl)-N-((aR)-6-(4-oxo-3,4-dihydrophthalazin-1-yl)spiro[3.3]heptan-2-yl)pyrazolo[1,5-a]pyridine-3-carboxamide] was run?
The IC50 was 5.1 to 15 nM.

For `COc1ncc(-c2ccc3c(C(=O)NC4CC5(C4)CC(c4n[nH]c(=O)c6ccccc46)C5)cnn3c2)cn1` [Example 210, 6-(2-methoxypyrimidin-5-yl)-N-((aR)-6-(4-oxo-3,4-dihydrophthalazin-1-yl)spiro[3.3]heptan-2-yl)pyrazolo[1,5-a]pyridine-3-carboxamide], which IC50 is on record?
Its IC50 is 2.01 to 5 nM.

How did the IC50 turn out when `O=C(NC1CC2(C1)CC(c1n[nH]c(=O)c3ccccc13)C2)c1cnn2cc(COCC3CCOCC3)ccc12` [Example 211, N-((aR)-6-(4-oxo-3,4-dihydrophthalazin-1-yl)spiro[3.3]heptan-2-yl)-6-(((tetrahydro-2H-pyran-4-yl)methoxy)methyl)pyrazolo[1,5-a]pyridine-3-carboxamide] was run?
Its IC50 is 2.01 to 5 nM.

How did the IC50 turn out when `[H][C@]1(c2n[nH]c(=O)c3ccccc32)C[C@]2(C[C@@H](NC(=O)c3cnn4cc(COCC=C)ccc34)C2)C1` (stereo partly drawn) [Example 212, 6-((allyloxy)methyl)-N-((aR)-6-(4-oxo-3,4-dihydrophthalazin-1-yl)spiro[3.3]heptan-2-yl)pyrazolo[1,5-a]pyridine-3-carboxamide] was run?
Its IC50 is 0.2 to 2 nM.

For `O=C(N[C@H]1CC2(C1)C[C@H](c1n[nH]c(=O)c3ccccc31)C2)c1cnn2cc(CO)ccc12` (stereo partly drawn) [Example 213, 6-(hydroxymethyl)-N-((aR)-6-(4-oxo-3,4-dihydrophthalazin-1-yl)spiro[3.3]heptan-2-yl)pyrazolo[1,5-a]pyridine-3-carboxamide], which IC50 is on record?
Its IC50 is 5.1 to 15 nM.

How did the IC50 turn out when `CC(=O)c1ccc2c(C(=O)N[C@H]3CC4(C3)C[C@H](c3n[nH]c(=O)c5ccccc53)C4)cnn2c1` (stereo partly drawn) [Example 214, 6-acetyl-N-((aR)-6-(4-oxo-3,4-dihydrophthalazin-1-yl)spiro[3.3]heptan-2-yl)pyrazolo[1,5-a]pyridine-3-carboxamide] was run?
The IC50 was 2.01 to 5 nM.

For `CC(C)(O)c1ccc2c(C(=O)N[C@H]3CC4(C3)C[C@H](c3n[nH]c(=O)c5ccccc53)C4)cnn2c1` (stereo partly drawn) [Example 215, 6-(2-hydroxypropan-2-yl)-N-((aR)-6-(4-oxo-3,4-dihydrophthalazin-1-yl)spiro[3.3]heptan-2-yl)pyrazolo[1,5-a]pyridine-3-carboxamide], which IC50 is on record?
Its IC50 is 5.1 to 15 nM.

For `Cc1c(-c2ccc3c(C(=O)N[C@H]4CC5(C4)C[C@H](c4n[nH]c(=O)c6ccccc64)C5)cnn3c2)cnn1C` (stereo partly drawn) [Example 216, 6-(1,5-dimethyl-1H-pyrazol-4-yl)-N-((aR)-6-(4-oxo-3,4-dihydrophthalazin-1-yl)spiro[3.3]heptan-2-yl)pyrazolo[1,5-a]pyridine-3-carboxamide], which IC50 is on record?
Its IC50 is 0.2 to 2 nM.

`O=C(NC1CC2(C1)CC(c1n[nH]c(=O)c3ccccc13)C2)c1cnn2cc(-c3cnn(C4CC4)c3)ccc12` [Example 217, 6-(1-cyclopropyl-1H-pyrazol-4-yl)-N-((aR)-6-(4-oxo-3,4-dihydrophthalazin-1-yl)spiro[3.3]heptan-2-yl)pyrazolo[1,5-a]pyridine-3-carboxamide] was tested. Which IC50 did it give?
The IC50 was 0.2 to 2 nM.

Which IC50 does the source give for `O=C(NC1CC2(C1)CC(c1n[nH]c(=O)c3ccccc13)C2)c1cnn2cc(-c3cnn(CC4CC4)c3)ccc12` [Example 218, 6-(1-(cyclopropylmethyl)-1H-pyrazol-4-yl)-N-((aR)-6-(4-oxo-3,4-dihydrophthalazin-1-yl)spiro[3.3]heptan-2-yl)pyrazolo[1,5-a]pyridine-3-carboxamide] here?
Its IC50 is 0.2 to 2 nM.

`[2H]C([2H])([2H])n1cc(-c2ccc3c(C(=O)NC4CC5(C4)CC(c4n[nH]c(=O)c6ccccc46)C5)cnn3c2)cn1` (centres unmarked) [Example 219] was tested. Which IC50 did it give?
The IC50 was 0.2 to 2 nM.

With `CC(C)n1cc(-c2ccc3c(C(=O)NC4CC5(C4)CC(c4n[nH]c(=O)c6ccccc46)C5)cnn3c2)cn1` [Example 220, 6-(1-isopropyl-1H-pyrazol-4-yl)-N-((aR)-6-(4-oxo-3,4-dihydrophthalazin-1-yl)spiro[3.3]heptan-2-yl)pyrazolo[1,5-a]pyridine-3-carboxamide] as the compound, how does the IC50 read?
The IC50 was 0.2 to 2 nM.
